pIC50: −log10 of the molar value. Activity calls are given as the source filed them. No cut-off for these calls is given here.
Legend:
[1] = Toxicity in C57 mouse xenografted with mouse B16-F10 cells assessed as monocytes count at 3.5 mg/kg, ip qd for 12 days in presence of NP-19 by biochemical analysis (reference value: 0.080 to 0.610 10^9/L); format: organism-based; conditions: in vivo, 288 h, time 12 day
[2] = Toxicity in C57 mouse xenografted with mouse B16-F10 cells assessed as morphological abnormality in heart at 3.5 mg/kg, ip qd for 12 days in presence of NP-19 by H and E staining based analysis; format: organism-based; conditions: in vivo, 288 h, time 12 day
B16-F10 [3] = assay: Induction of cell cycle arrest in mouse B16-F10 cells assessed as accumulation of cells at S phase at 0.5 nM incubated for 12 hrs by flow cytometry (reference value: 30.5 %); format: functional
B16-F10 [4] = assay: Antiproliferative activity against mouse B16-F10 cells incubated for 48 hrs by MTT assay; format: functional, cell-based; conditions: B16-F10, 48 h
[5] = Toxicity in C57 mouse xenografted with mouse B16-F10 cells assessed as RDW-CV at 3.5 mg/kg, ip qd for 12 days in presence of NP-19 by biochemical analysis (reference value: 14.300 to 14.300); format: organism-based; conditions: in vivo, 288 h, time 12 day
[6] = Toxicity in C57 mouse xenografted with mouse B16-F10 cells assessed as PCT level at 7 mg/kg, ip qd for 12 days by biochemical analysis (reference value: 0.425 to 5.300); format: organism-based; conditions: in vivo, 288 h, time 12 day
MCF7 [7] = assay: Inhibition of cell migration in human MCF7 cells assessed as migration rate at 4 nM incubated for 24 hrs by wound healing assay (reference value: 18.1 %); format: functional; set-up: scale not given: the % may be the effect or the level left
B16-F10 [8] = assay: Induction of apoptosis in mouse B16-F10 cells assessed as late apoptotic cells at 0.5 nM incubated for 12 hrs by Annexin V-FITC/PI staining based flow cytometry (reference value: 2.39 %); format: functional
[9] = Toxicity in C57 mouse xenografted with mouse B16-F10 cells assessed as WBC count at 7 mg/kg, ip qd for 12 days by biochemical analysis (reference value: 8.240 to 8.340 10^9/L); format: organism-based; conditions: in vivo, 288 h, time 12 day
[10] = Toxicity in C57 mouse xenografted with mouse B16-F10 cells assessed as basophil count at 3.5 mg/kg, ip qd for 12 days in presence of NP-19 by biochemical analysis (reference value: 0.060 to 25.500 10^9/L); format: organism-based; conditions: in vivo, 288 h, time 12 day
[11] = Toxicity in C57 mouse xenografted with mouse B16-F10 cells assessed as morphological abnormality in liver at 7 mg/kg, ip qd for 12 days by H and E staining based analysis; format: organism-based; conditions: in vivo, 288 h, time 12 day
[12] = Toxicity in C57 mouse xenografted with mouse B16-F10 cells assessed as RDW-CV at 7 mg/kg, ip qd for 12 days by biochemical analysis (reference value: 14.300 to 14.300); format: organism-based; conditions: in vivo, 288 h, time 12 day
[13] = Toxicity in C57 mouse xenografted with mouse B16-F10 cells assessed as body weight change at 7 mg/kg, ip qd for 12 days; format: organism-based; conditions: in vivo, 288 h, time 12 day
B16-F10 [14] = assay: Antitumor activity against mouse B16-F10 cells xenografted in C57 mouse assessed as suppression of tumor growth at 7 mg/kg, ip qd for 12 days; format: functional, organism-based; conditions: time 12.0 day
MCF7 [15] = assay: Antiproliferative activity against human MCF7 cells incubated for 48 hrs by MTT assay; format: functional, cell-based; conditions: MCF7, 48 h
[16] = Toxicity in C57 mouse xenografted with mouse B16-F10 cells assessed as eosinophil level at 7 mg/kg, ip qd for 12 days by biochemical analysis (reference value: 0.700 to 1.000 %); format: organism-based; conditions: in vivo, 288 h, time 12 day
HCT-116 = assay: Antiproliferative activity against human HCT-116 cells incubated for 48 hrs by MTT assay; format: functional, cell-based; conditions: HCT-116, 48 h
B16-F10 [17] = assay: Inhibition of cell migration in mouse B16-F10 cells assessed as migration rate at 2 nM incubated for 24 hrs by wound healing assay (reference value: 61.1 %); format: functional; set-up: scale not given: the % may be the effect or the level left
MCF7 [18] = assay: Induction of apoptosis in human MCF7 cells assessed as increase in Bax level upto 30 nM incubated for 24 hrs by Western blot analysis; format: functional, cell-based
B16-F10 [19] = assay: Inhibition of cell migration in mouse B16-F10 cells assessed as reduction in wound closure incubated for 24 hrs by wound healing assay; format: functional, cell-based
B16-F10 [20] = assay: Induction of apoptosis in mouse B16-F10 cells assessed as early apoptotic cells at 1 nM incubated for 12 hrs by Annexin V-FITC/PI staining based flow cytometry (reference value: 3.81 %); format: functional
[21] = Toxicity in C57 mouse xenografted with mouse B16-F10 cells assessed as MPV level at 3.5 mg/kg, ip qd for 12 days in presence of NP-19 by biochemical analysis (reference value: 6.200 to 15.000); format: organism-based; conditions: in vivo, 288 h, time 12 day
[22] = Toxicity in C57 mouse xenografted with mouse B16-F10 cells assessed as WBC count at 3.5 mg/kg, ip qd for 12 days in presence of NP-19 by biochemical analysis (reference value: 8.240 to 8.340 10^9/L); format: organism-based; conditions: in vivo, 288 h, time 12 day
B16-F10 [23] = assay: Induction of apoptosis in mouse B16-F10 cells assessed as early apoptotic cells at 0.5 nM incubated for 12 hrs by Annexin V-FITC/PI staining based flow cytometry (reference value: 3.81 %); format: functional
B16-F10 [24] = assay: Induction of apoptosis in mouse B16-F10 cells assessed as viable cells at 0.5 nM incubated for 12 hrs by Annexin V-FITC/PI staining based flow cytometry (reference value: 93.6 %); format: functional; conditions: read-out: Activity
B16-F10 [25] = assay: Inhibition of cell migration in mouse B16-F10 cells assessed as migration rate at 4 nM incubated for 24 hrs by wound healing assay (reference value: 61.1 %); format: functional; set-up: scale not given: the % may be the effect or the level left
B16-F10 [26] = assay: Induction of cell cycle arrest in mouse B16-F10 cells assessed as accumulation of cells at S phase at 2 nM incubated for 12 hrs by flow cytometry (reference value: 30.5 %); format: functional
MCF7 [27] = assay: Induction of apoptosis in human MCF7 cells assessed as decrease in Bcl-2 level upto 30 nM incubated for 24 hrs by Western blot analysis; format: functional, cell-based
B16-F10 [28] = assay: Inhibition of cell migration in mouse B16-F10 cells assessed as migration rate at 1 nM incubated for 24 hrs by wound healing assay (reference value: 61.1 %); format: functional; set-up: scale not given: the % may be the effect or the level left
[29] = Toxicity in C57 mouse xenografted with mouse B16-F10 cells assessed as MCHC level at 3.5 mg/kg, ip qd for 12 days in presence of NP-19 by biochemical analysis (reference value: 324.000 to 683.000 g/L); format: organism-based; conditions: in vivo, 288 h, time 12 day
[30] = Toxicity in C57 mouse xenografted with mouse B16-F10 cells assessed as MCHC level at 7 mg/kg, ip qd for 12 days by biochemical analysis (reference value: 324.000 to 683.000 g/L); format: organism-based; conditions: in vivo, 288 h, time 12 day
[31] = Inhibition of pig brain tubulin polymerization by spectrophotometric method
B16-F10 [32] = assay: Induction of apoptosis in mouse B16-F10 cells assessed as necrotic cells at 0.5 nM incubated for 12 hrs by Annexin V-FITC/PI staining based flow cytometry (reference value: 0.25 %); format: functional
MCF7 [33] = assay: Inhibition of cell migration in human MCF7 cells assessed as migration rate at 2 nM incubated for 24 hrs by wound healing assay (reference value: 18.1 %); format: functional; set-up: scale not given: the % may be the effect or the level left

## Cc1nc(N(C)c2ccc3c(ccn3C)c2)c2sccc2n1
[1]
  Activity: 0.06 10^9/L
[2]
  Activity: Non-Toxic
B16-F10 [3]
  Activity: 15.9%
B16-F10 [4]
  pIC50: 7.93
[5]
  Activity: 14
[6]
  Activity: 0.329
MCF7 [7]
  Activity: 3.23%
B16-F10 [8]
  Activity: 7.06%
[9]
  Activity: 2.51 10^9/L
[10]
  Activity: 0.01 10^9/L
[11]
  Activity: Non-Toxic
[12]
  Activity: 14.2
[13]
  Activity: Non-Toxic
B16-F10 [14]
  Activity: Active
MCF7 [15]
  pIC50: 8.02
[16]
  Activity: 0.3%
HCT-116
  pIC50: 9.42
B16-F10 [17]
  Activity: 34.6%
MCF7 [18]
  Activity: Active
B16-F10 [19]
  inhibition: Dose-Dependent Effect
B16-F10 [20]
  Activity: 11%
[21]
  Activity: 6
[22]
  Activity: 4.22 10^9/L
B16-F10 [23]
  Activity: 11.2%
B16-F10 [24]
  viability at 0.0005 µM: 80.1%
B16-F10 [25]
  Activity: 5.23%
B16-F10 [26]
  Activity: 19.3%
MCF7 [27]
  Activity: Active
B16-F10 [28]
  Activity: 57.5%
[29]
  Activity: 343 g/L
[30]
  Activity: 322 g/L
[31]
  pIC50: 5.60
B16-F10 [32]
  Activity: 1.44%
MCF7 [33]
  Activity: 8.84%
